Measurements reported in patent US20050250801A1, “Method of treating cancer with azaspirane compositions” (priority 2003, published 2005).
Where two headings read alike, the source gives them in different places.

Experiments:
HUVEC cells = assay: Induction of apoptosis, DNA fragmentation analysis, HUVEC; assay type: cell-based, human; settings: 16 hours treatment
Description: T84, CaCo-2 and HUVEC cells, respectively, were grown in 100 mm dishes for 7-9 days, culture media for HUVEC was EGM-2 (Clonetics, BioWhitaker Co.), until they reached semi-confluency. Cell monolayers were then treated for 12 hours (CaCo-2 and T84) and 16 hours (HUVEC), respectively, at the indicated concentrations of N,N,-diethyl-8,8-dipropyl-2-azaspiro[4,5]decane-2-propanamine dimaleate (Compound 1) in culture media. Cells were collected by trypsinization and the apoptotic DNA was isolated from these cells following the instructions of the DNA fragmentation analysis kit (Boehringer Mannheim Corp., Indianapolis, Ind.). The apoptotic DNA was evaluated using 1.5% agarose gel electrophoresis followed by staining with ethidium bromide. M denotes the lane containing molecular weight markers of DNA.

HUVEC [1] = assay: HUVEC cell migration assay (Boyden chamber); assay type: cell-based; settings: Homo sapiens, 5 hours incubation, read-out: IC50 Concentration, Migration
Description: Migration is assessed using the 48-well Boyden chamber and 8 μm pore size collagen-coated (10 μg/ml rat tail collagen; Collaborative Laboratories) polycarbonate filters (Osmonics, Inc.). The bottom chamber wells receive 27-29 μl of Dulbecco's Modified Eagle Medium (“DMEM”) alone (baseline) or medium containing chemo-attractant (bFGF, VEGF or […] cell conditioned medium). The top chambers receive 45 μl of a HUVEC cell suspension (1×10^6 cells/ml) prepared in DMEM+1% Bovine Serum Albumin (“BSA”) with or without test compound. After 5 hours incubation at 37° C. the membrane is rinsed in Phosphate Buffer Saline (“PBS”), fixed and stained in Diff-Quick solutions. The filter is placed on a glass slide with the migrated cells facing down and cells on top are removed using a Kimwipe. The testing is performed in 4-6 replicates and five fields are counted from each well. Negative unstimulated control values are subtracted from stimulated control and drug treated values and data is plotted as mean migrated cell±Standard Deviation.

HUVEC [2] = assay: HUVEC growth inhibition assay (crystal violet); assay type: cell-based; settings: Homo sapiens, 72 hours, read-out: IC50 Concentration, Growth Inhibition
Description: HUVEC (1.5×10^3) are plated in a 96-well plate in 100 μl of EBM-2 (Clonetic # CC3162). After 24 hours (day 0), a test solution of Compound 1 (100 μl) is added to each well at 2× the desired concentration (5-7 concentration levels) in EBM-2 medium. On day 0, one plate is stained with 0.5% crystal violet in 20% methanol for 10 minutes, rinsed with water, and air-dried. The remaining plates are incubated for 72 hours at 37° C. After 72 hours, plates are stained with 0.5% crystal violet in 20% methanol, rinsed with water and air-dried. The stain is eluted with 1:1 solution of ethanol: 0.1 M sodium citrate (including day 0 plate), and absorbance is measured at 540 nm with an ELISA reader (Dyriatech Laboratories). Day 0 absorbance is subtracted from the 72 hour plates and data is plotted as percentage of control proliferation (vehicle treated cells).

RXF 393 = assay: NCI in vitro SRB assay, Renal Cancer; assay type: cell-based; settings: for CC50 / GI50: Homo sapiens
Description: (§1) An in vitro assay which tested the ability of N,N,-diethyl-8,8-dipropyl-2-azaspiro[4,5]decane-2-propanamine dimaleate (Compound 1) to inhibit the growth of known cancer cell lines was performed by the National Cancer Institute in accordance with standard procedures. See: Lin, Z. X., Hoult, J. R., and Raman, A. Sulphorhodamine B assay for measuring proliferation of a pigmented melanocyte cell line and its application to the evaluation of crude drugs used in the treatment of vitiligo. J Ethnopharmacol. 66: 141-150, 1999. Briefly, selected tumor cell lines were cultured in media containing five different concentrations of Compound 1. After 48 hours of continuous exposure, a sulforhodamine B (SRB) assay was used to estimate cell viability or growth via optical measurements.
(§2) From the measurements, the following values were determined: 1) the concentration of Compound 1 at which a tumor cell growth inhibition of 50% (relative to control) occurs (GI50), 2) the concentration of Compound 1 at which no growth occurs (total growth inhibition, TGI), and 3) the concentration of Compound 1 at which the […] (LC 50). […] FIG. 6 illustrates, graphically, tumor cell growth as a function of Compound 1 concentration of the scanned tumor cell lines.

A498 = assay: NCI in vitro SRB assay, Renal Cancer; assay type: cell-based; settings: for GI50: Homo sapiens
Description: as §1, §2

SN12C = assay: NCI in vitro SRB assay, Renal Cancer; assay type: cell-based; settings: for GI50 / CC50: Homo sapiens
Description: as §1, §2

CAKI-1 = assay: NCI in vitro SRB assay, Renal Cancer; assay type: cell-based; settings: for CC50 / GI50: Homo sapiens
Description: as §1, §2

[3] = RXF 393, Log10 conc -4.0 Moles/L
[4] = RXF 393, Log10 conc -5.0 Moles/L
[5] = RXF 393, Log10 conc -6.0 Moles/L
[6] = RXF 393, Log10 conc -7.0 Moles/L
[7] = RXF 393, Log10 conc -8.0 Moles/L
[8] = read-out: Log10 GI50 (converted)
[9] = CAKI-1, Log10 conc -4.0 Moles/L
[10] = CAKI-1, Log10 conc -5.0 Moles/L
[11] = CAKI-1, Log10 conc -6.0 Moles/L
[12] = CAKI-1, Log10 conc -7.0 Moles/L
[13] = CAKI-1, Log10 conc -8.0 Moles/L

CCCC1(CCC)CCC2(CCN(CCCN(CC)CC)C2)CC1.O=C(O)/C=C\C(=O)O.O=C(O)/C=C\C(=O)O [Compound 1, N,N,-diethyl-8,8-dipropyl-2-azaspiro[4,5]decane-2-propanamine dimaleate]
DNA ladder formation (apoptosis) (HUVEC cells): formation of DNA laddering in a dose-dependent manner | IC50 (HUVEC [1]): 530 nM | IC50 (HUVEC [2]): 2050 nM | CC50 (RXF 393; RXF 393, read-out: LC50): 7100 nM | CC50 (RXF 393; RXF 393, read-out: Log10 LC50 (converted)): 7080 nM | GI50 (RXF 393; RXF 393, read-out: GI50): 1640 nM | GI50 (RXF 393; RXF 393, read-out: Log10 GI50 (converted)): 1620 nM | Log10 TGI (RXF 393; RXF 393): −5.47 | TGI (RXF 393; RXF 393): 3410 nM | Mean Optical Densities (RXF 393; [3]): 0.083 | Percent Growth (RXF 393; [3]): −74% | Mean Optical Densities (RXF 393; [4]): 0.086 | Percent Growth (RXF 393; [4]): −73% | Mean Optical Densities (RXF 393; [5]): 0.943 | Percent Growth (RXF 393; [5]): 84% | Mean Optical Densities (RXF 393; [6]): 1.028 | Percent Growth (RXF 393; [6]): 95% | Mean Optical Densities (RXF 393; [7]): 1.017 | Percent Growth (RXF 393; [7]): 94% | Log10 TGI (A498): −5.50 | TGI (A498): 3130 nM | GI50 (A498; read-out: GI50): 1680 nM | GI50 (A498; [8]): 1700 nM | Mean Optical Densities (A498; Log10 conc -4.0 Moles/L): 0.157 | Percent Growth (A498; Log10 conc -4.0 Moles/L): −85% | Mean Optical Densities (A498; Log10 conc -5.0 Moles/L): 0.065 | Percent Growth (A498; Log10 conc -5.0 Moles/L): −94% | Mean Optical Densities (A498; Log10 conc -6.0 Moles/L): 1.336 | Percent Growth (A498; Log10 conc -6.0 Moles/L): 92% | Mean Optical Densities (A498; Log10 conc -7.0 Moles/L): 1.327 | Percent Growth (A498; Log10 conc -7.0 Moles/L): 89% | Mean Optical Densities (A498; Log10 conc -8.0 Moles/L): 1.297 | Percent Growth (A498; Log10 conc -8.0 Moles/L): 79% | Log10 TGI (SN12C): −5.55 | TGI (SN12C): 2820 nM | GI50 (SN12C; read-out: GI50): 1290 nM | CC50 (SN12C; read-out: LC50): 6170 nM | GI50 (SN12C; [8]): 1290 nM | CC50 (SN12C; read-out: Log10 LC50 (converted)): 6170 nM | Mean Optical Densities (SN12C; Log10 conc -4.0 Moles/L): 0.036 | Percent Growth (SN12C; Log10 conc -4.0 Moles/L): −90% | Mean Optical Densities (SN12C; Log10 conc -5.0 Moles/L): 0.069 | Percent Growth (SN12C; Log10 conc -5.0 Moles/L): −81% | Mean Optical Densities (SN12C; Log10 conc -6.0 Moles/L): 0.668 | Percent Growth (SN12C; Log10 conc -6.0 Moles/L): 66% | Mean Optical Densities (SN12C; Log10 conc -7.0 Moles/L): 0.701 | Percent Growth (SN12C; Log10 conc -7.0 Moles/L): 73% | Mean Optical Densities (SN12C; Log10 conc -8.0 Moles/L): 0.717 | Percent Growth (SN12C; Log10 conc -8.0 Moles/L): 76% | Log10 TGI (CAKI-1; CAKI-1): −5.49 | TGI (CAKI-1; CAKI-1): 3270 nM | Mean Optical Densities (CAKI-1; [9]): 0.136 | Percent Growth (CAKI-1; [9]): −83% | Mean Optical Densities (CAKI-1; [10]): 0.150 | Percent Growth (CAKI-1; [10]): −81% | Mean Optical Densities (CAKI-1; [11]): 1.691 | Percent Growth (CAKI-1; [11]): 86% | Mean Optical Densities (CAKI-1; [12]): 1.607 | Percent Growth (CAKI-1; [12]): 78% | Mean Optical Densities (CAKI-1; [13]): 1.646 | Percent Growth (CAKI-1; [13]): 82% | CC50 (CAKI-1; CAKI-1, read-out: LC50): 6510 nM | CC50 (CAKI-1; CAKI-1, read-out: Log10 LC50 (converted)): 6460 nM | GI50 (CAKI-1; CAKI-1, read-out: GI50): 1650 nM | GI50 (CAKI-1; CAKI-1, read-out: Log10 GI50 (converted)): 1660 nM
